According to patent US5340818A, “Methods and compositions for inhibiting tumor cell growth” (priority 1993, dated 1994):
Where “and” joins values, the source holds several entries; their conditions need not be identical. Equal values may be shown once. Entries after “also recorded” stand apart in the source; their conditions may differ. Read-outs that look alike come from different tables or passages of the source.

What was measured:
[1] = system: HL-60 cells; assay: HL-60 cell growth inhibition, 72 h; type: cell-based, human; conditions: HL-60, 72 h; for IC50: read-out: Cell Growth Inhibition, IC50
Outline: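 HL-60 cells seeded at 1.5×10^5/ml in RPMI 1640, exposed 72 h at 37° C, 5% CO2 to compound at 0.0025-0.05 mg/ml in 0.1% DMSO. Viable cells counted by trypan blue exclusion; IC50 from median-effect analysis over three to five dose levels versus DMSO control.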

[2] = system: protein synthesis in HL-60 cells; assay: Inhibition of [2,3,4,5-3H]L-Leu incorporation into protein of HL-60 cells; type: cell-based, human; conditions: Homo sapiens
Outline: (§1)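 HL-60 cells (2.2×10^6/ml) preincubated 15 min with compound (0.03 mg/ml, 0.3% DMSO), then 30 min with [5-3H]Cyd (5 μCi, 0.23 nmol/ml) for RNA or [2,3,4,5-3H]L-Leu (0.5 μCi, 0.004 nmol/ml) for protein. Inhibition relative to DMSO-only incorporation.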

[3] = system: B-16 Melanoma; assay: B-16 melanoma in mice; type: in vivo, mouse; conditions: day 1 QDX4
From the text: Chemotherapeutic Effects of Acronycine and TSA-35 against Solid

[4] = system: Carcinoma EO771; assay: Carcinoma EO771 (E07713 mammary adenocarcinoma) survival time evaluation in C57BL/6 mice; type: in vivo
From the text: Tumor-Carcinoma EO771 3 × 10^5 cells (ip) in C57BL/6, FEM,
(§2) Diluent-CMC + 1 drop Tween 80
(§3) Schedule: Day 1, QDX4 (ip)

[5] = system: DNA synthesis in HL-60 cells; assay: Inhibition of [3H-methyl]dThd incorporation into DNA of HL-60 cells; type: cell-based, human; conditions: Homo sapiens, HL-60, at 0.03 mg/mL; read-out: % Inhibition of Precursor Incorporation, DNA
Outline: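 HL-60 cells, 2.2×10^6 /ml, preincubated 15 min with compound in 0.3% DMSO, then 30 min with [3H-methyl]dThd (1 μCi, 0.15 nmole/ml). DNA incorporation compared with DMSO-only control.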

[6] = system: RNA synthesis in HL-60 cells; assay: Inhibition of [5-3H]Cyd incorporation into RNA of HL-60 cells; type: cell-based, human; conditions: Homo sapiens, HL-60, 0.5 h
Outline: as §1

[7] = system: Lewis lung carcinoma; assay: Lewis lung carcinoma survival time evaluation in C57BL/6 mice; type: in vivo, mouse; set-up: Survival Time, individual mice / AST (average survival time): unit not given here; conditions: for AST (average survival time) / Day #7 AWC (average weight change) / N/T (29 day survivors/total mice) / Survival Time, individual mice / % ILS (increase in lifespan): day 1, QDX4 ip; for % ILS (increase in lifespan): 25% or greater indicates activity
From the text: Tumor-Lewis Lung C. 3 × 10^5 cells (ip) in C57BL/6, FEM, 19-21
as §2, §3

[8] = Table 8, 50 mg/kg ip, day 1 QDX4
[9] = Table 8, 100 mg/kg ip, day 1 QDX4
[10] = Table 8, 25 mg/kg ip, day 1 QDX4
[11] = Table 8, 150 mg/kg ip, day 1 QDX4

Q: Which “cell growth inhibition, in words” value [1] does the source give for `COc1cc2c(c3c1c(=O)c1ccccc1n3C)C=CC(C)(C)O2` [Compound 1, Acronycine] here?
A: significantly active

Q: What about the inhibition at 30 µg/mL ([2]; HL-60, read-out: % Inhibition of Precursor Incorporation, Protein, at 0.03 mg/mL) of the same compound?
A: 25.4%

Q: And the “% ILS” value ([3]; 50 mg/kg ip)?
A: 24%

Q: And the “Day 7 BWC (body weight change)” value ([3]; 50 mg/kg ip)?
A: -0.6 g

Q: What about the “N/T (40 day tumorfree mice/total)” value ([3]; 50 mg/kg ip) of the same compound?
A: 0/5

Q: What about the “AST (average survival time)” value ([4]; 50 mg/kg, day 1, QDX4 ip) of the same compound?
A: 13.4

Q: And the “Day #7 AWC (average weight change)” value ([4]; 50 mg/kg, day 1, QDX4 ip)?
A: +0.4 g

Q: And the “N/T (22 day survivors/total mice)” value ([4]; 50 mg/kg, day 1, QDX4 ip)?
A: 0/5

Q: What about the “Survival Time, individual mice” value ([4]; 50 mg/kg, day 1, QDX4 ip) of the same compound?
A: 11 and 14 and 17

Q: What about the “% ILS (increase in lifespan)” value ([4]; 50 mg/kg, day 1, QDX4 ip, 25% or greater indicates activity) of the same compound?
A: 26%

Q: What about the toxicity induced deaths ([4]; 100 mg/kg daily for 4 days ip) of the same compound?
A: 1 out of 3

Q: What about the “AST (average survival time)” value ([4]; 100 mg/kg, day 1, QDX4 ip) of the same compound?
A: 11.0

Q: What about the “Day #7 AWC (average weight change)” value ([4]; 100 mg/kg, day 1, QDX4 ip) of the same compound?
A: +0.5 g

Q: And the “N/T (22 day survivors/total mice)” value ([4]; 100 mg/kg, day 1, QDX4 ip)?
A: 0/3

Q: What about the “% ILS (increase in lifespan)” value ([4]; 100 mg/kg, day 1, QDX4 ip, 25% or greater indicates activity) of the same compound?
A: 4%

Q: What about the “Survival Time, individual mice” value ([4]; 100 mg/kg, day 1, QDX4 ip, t = died of toxicity) of the same compound?
A: 4t and 10 and 12

Q: What about the “% ILS” value [4, 8] of the same compound?
A: 26%

Q: What about the “Day 7 BWC (body weight change)” value [4, 8] of the same compound?
A: +0.4 g

Q: And the “N/T (40 day tumorfree mice/total)” value [4, 8]?
A: 0/5

Q: And the “% ILS” value [4, 9]?
A: 4%

Q: And the “N/T (40 day tumorfree mice/total)” value [4, 9]?
A: 0/3

Q: And the death [4, 9]?
A: 1/3

Q: And the inhibition at 30 µg/mL [5]?
A: ~90%

Q: And the inhibition at 30 µg/mL ([6]; read-out: % Inhibition of Precursor Incorporation, RNA, at 0.03 mg/mL)?
A: 21.3%

Q: What about the “AST (average survival time)” value ([7]; 25 mg/kg) of the same compound?
A: 14.6

Q: What about the “Day #7 AWC (average weight change)” value ([7]; 25 mg/kg) of the same compound?
A: -0.6 g

Q: And the “N/T (29 day survivors/total mice)” value ([7]; 25 mg/kg)?
A: 0/5

Q: What about the “Survival Time, individual mice” value ([7]; 25 mg/kg) of the same compound?
A: 14 and 17

Q: And the “% ILS (increase in lifespan)” value ([7]; 25 mg/kg)?
A: 40%

Q: And the “AST (average survival time)” value ([7]; 50 mg/kg)?
A: 14.6

Q: What about the “Day #7 AWC (average weight change)” value ([7]; 50 mg/kg) of the same compound?
A: -0.8 g

Q: And the “N/T (29 day survivors/total mice)” value ([7]; 50 mg/kg)?
A: 0/5

Q: And the “Survival Time, individual mice” value ([7]; 50 mg/kg)?
A: 14 and 15

Q: What about the “% ILS (increase in lifespan)” value ([7]; 50 mg/kg) of the same compound?
A: 40%

Q: What about the “% ILS” value [7, 10] of the same compound?
A: 40%

Q: What about the “Day 7 BWC (body weight change)” value [7, 10] of the same compound?
A: -0.6 g

Q: And the “N/T (40 day tumorfree mice/total)” value [7, 10]?
A: 0/5

Q: What about the “% ILS” value [7, 8] of the same compound?
A: 34%

Q: And the “Day 7 BWC (body weight change)” value [7, 8]?
A: -0.5 g

Q: What about the “N/T (40 day tumorfree mice/total)” value [7, 8] of the same compound?
A: 0/15

Q: And the “N/T (40 day tumorfree mice/total)” value [7, 9]?
A: 0/5

Q: What about the death [7, 9] of the same compound?
A: 5/5

Q: Which results are given for `COc1c(OC)c(OC)c2c(c1O)c(=O)c1ccc(O)c(OC)c1n2C` [Compound 31, Glyfoline]?
A: Cell Growth Inhibition, IC50 [1]: 0.4 µg/mL; cell growth inhibition, in words [1]: most potent compound in this series; also recorded: significant activity against leukemic cells in vitro; IC50 [1]: 1.11 µM; IC50 ([1]; Homo sapiens): 0.4 µg/mL and 1.1 µM; inhibition at 30 µg/mL ([2]; HL-60, at 0.03 mg/mL, read-out: % Inhibition of Precursor Incorporation, Protein): 90.7%; % ILS ([3]; 25 mg/kg ip): 31%; N/T (40 day tumorfree mice/total) ([3]; 25 mg/kg ip): 0/5; % ILS ([3]; 50 mg/kg ip): 40%; N/T (40 day tumorfree mice/total) ([3]; 50 mg/kg ip): 0/5; % ILS ([3]; 150 mg/kg ip): > 56%; N/T (40 day tumorfree mice/total) ([3]; 150 mg/kg ip): 1/5; AST (average survival time) ([4]; 50 mg/kg, day 1, QDX4 ip): 12.4; N/T (22 day survivors/total mice) ([4]; 50 mg/kg, day 1, QDX4 ip): 0/5; Survival Time, individual mice ([4]; 50 mg/kg, day 1, QDX4 ip, listed as TSA-35): 10 and 11 and 12 and 14 and 15; AST (average survival time) ([4]; 100 mg/kg, day 1, QDX4 ip): > 15; N/T (22 day survivors/total mice) ([4]; 100 mg/kg, day 1, QDX4 ip): 1/3; Survival Time, individual mice ([4]; 100 mg/kg, day 1, QDX4 ip, t = died of toxicity, listed as TSA-35): 11 and > 22; % ILS (increase in lifespan) ([4]; ip, 50 mg/kg, 24 h): 17%; % ILS (increase in lifespan) ([4]; ip, 100 mg/kg, 24 h): > 39%; toxicity induced deaths ([4]; mouse, in vivo): no deaths; Day 7 BWC (body weight change) ([4]; mouse, in vivo, ip, 25 mg/kg): +0.6 g; Day 7 BWC (body weight change) ([4]; mouse, in vivo, ip, 50 mg/kg): +0.3 g; inhibition at 30 µg/mL [5]: 93.5%; inhibition at 30 µg/mL ([6]; at 0.03 mg/mL, read-out: % Inhibition of Precursor Incorporation, RNA): 65.7%; AST (average survival time) ([7]; 25 mg/kg): 14.8; N/T (29 day survivors/total mice) ([7]; 25 mg/kg): 0/5; % ILS (increase in lifespan) ([7]; 25 mg/kg): 42%; Survival Time, individual mice ([7]; 25 mg/kg, listed as TSA-35): 14 and 18; AST (average survival time) ([7]; 50 mg/kg): > 20; N/T (29 day survivors/total mice) ([7]; 50 mg/kg): 2 out of 5; % ILS (increase in lifespan) ([7]; 50 mg/kg): > 92%; N/T (29 day survivors/total mice) ([7]; 50 mg/kg, listed as TSA-35): 2/5; Survival Time, individual mice ([7]; 50 mg/kg, listed as TSA-35): 14 and > 29; % ILS [7, 10]: 42%; N/T (40 day tumorfree mice/total) [7, 10]: 0/5; % ILS [7, 8]: > 59%; N/T (40 day tumorfree mice/total) [7, 8]: 2/15; % ILS [7, 9]: > 46%; N/T (40 day tumorfree mice/total) [7, 9]: 1/10; % ILS [7, 11]: > 79%; N/T (40 day tumorfree mice/total) [7, 11]: 2/8; toxicity to mice, in words ([7]; mouse, in vivo): less toxicity to mice than that of compound 1; Day 7 BWC (body weight change) ([7]; mouse, in vivo, ip, 25 mg/kg): +0.2 g; Day 7 BWC (body weight change) ([7]; mouse, in vivo, ip, 50 mg/kg): +0.3 g; Day 7 BWC (body weight change) ([7]; mouse, in vivo, ip, 100 mg/kg): +0.5 g; Day 7 BWC (body weight change) ([7]; mouse, in vivo, ip, 150 mg/kg): -0.3 g
